{"source": "paper PMC2553423", "about": "(Glycobiology, 2008)", "molecules": {"B1": {"name": "EngEF (Enterococcus faecalis V583) (protein)", "chain": "MKHGKIKRFSTLTLLASATILVPLSTSAEETTNSSTETSSSMVEPTATEEKLWQSDFPGGKTGEWQDVIGKTNRELAGESLAISRDAAAGNNAVSLNLDSPKLADGEVETKFKYTAGSGRTGVIIRGNTKDSWVFVGYNANGKWLVESPNSWNDSISGPTLNEDTNYLLKVRYVGEKITIWLNTTLIYEGEPVLANGDKIPTEAGHVGVRLWYDKKIVNYDYFKNGPVDSIPEIVPEVTQIAPVKVFTKIGVAPKLPKQVKVTYNTGKEANEAVRWNEIDPDAYKEPGTFEVDGTLENTNIKAKASIVVAKDNEAEKGDKISSADLTAVVDPQFPRIIRYEDPQSNQVIFNGQHEKIDQVMIDGKAYKATAEKQKSEANQAVYNVAVPEIGLRFTTTLTVSEGQELAMKLSDIREEGTKIHTISIPNQGLISVNSTDEGATFAGVVMNTGTNANNGNKNGDTIQDLTTTSQEETKKYMYGFLNTANYAASFWTNAYGDGSVDGSDNNRIHKQTKEAATGFVTTLSSGAWTYRPFDAPEDYTTGETPEVKVKFSKDSNDDNRVDWQDAAIGFRSIMNNPMGAEKVPELVNQRIPFNFASQATNPFLVTLDESKRIYNLTDGLGQMNLLKGYQNEGHDSAHPDYGAIGQRPGGEQALNQLIDEGHKLNAVFGVHINDTESYPEAKGFNEELVDPTKRGWDWLDPSYFIKQRPDTLSGRRYERFKELKQKAPNLDYIYVDVWGNQGESGWASRQLSKEINSLGWFTTNEFPNALEYDSVWNHWSAEKDYGGTTTKGFNSTIVRFIRNHQKDTWIISDNPLLGGAEFEAYEGWVGKTNFNTYRQKTFAINVPTKFLQHYQITNWETTTAADGQIYGTIKLANGAEKVTVTQADANSPRSITLNETEVLKGDAYLLPWNVNGQDKLYHWNPKGGTSTWSLDKKMQGKTNLHLYELTDQGRIDKGAIATTNNQVTIQAEANTPYVIAEPDSIEPMTFGTGTPFKDPGFNEANTLKNNWKVFRGDGEVKKDANGDYVFSSEKERTEIKQDINLPKPGKYSLYLNTETHDRKATVTVKIGGKKYTRTVNNSVAQNYIQADINHTSRKNPQYMQNMRIDFEIPDNAKKGSVTLAVDKGNSVTKFDDLRIVERQTDIMNPDKQTVIKQDFEDTQAVGLYPFVKGSAGGVEDPRIHLSERNEPYTQYGWNGNLVSDVLEGNWSLKAHKQGAGLMLQTIPQNIKFEPNKKYTVQFDYQTDGENVFTAGTINGELKNNNDFKPVGELTSTAADGQTKHYEAEIIGDASGNTTFGIFTTGADKDFIMDNFTVTVESKK"}}, "key": {"EngEF": {"target": "T1, EngEF (Enterococcus faecalis, UniProt Q833X5)", "T1 sequence (Q833X5 1-1324)": "B1 chain", "assay": "steady-state kinetics, pNP release at […] nm", "conditions": "50 mM sodium phosphate pH 7.5, 5 mM MgCl2, 25°C"}, "EngCP": {"target": "EngCP (Clostridium perfringens, UniProt A0A0H2YQ40)", "type": "biochemical"}, "EngPA": {"target": "T2, EngPA (Cutibacterium acnes, UniProt A0ABM7H013)", "T2 sequence (A0ABM7H013 1-1321)": "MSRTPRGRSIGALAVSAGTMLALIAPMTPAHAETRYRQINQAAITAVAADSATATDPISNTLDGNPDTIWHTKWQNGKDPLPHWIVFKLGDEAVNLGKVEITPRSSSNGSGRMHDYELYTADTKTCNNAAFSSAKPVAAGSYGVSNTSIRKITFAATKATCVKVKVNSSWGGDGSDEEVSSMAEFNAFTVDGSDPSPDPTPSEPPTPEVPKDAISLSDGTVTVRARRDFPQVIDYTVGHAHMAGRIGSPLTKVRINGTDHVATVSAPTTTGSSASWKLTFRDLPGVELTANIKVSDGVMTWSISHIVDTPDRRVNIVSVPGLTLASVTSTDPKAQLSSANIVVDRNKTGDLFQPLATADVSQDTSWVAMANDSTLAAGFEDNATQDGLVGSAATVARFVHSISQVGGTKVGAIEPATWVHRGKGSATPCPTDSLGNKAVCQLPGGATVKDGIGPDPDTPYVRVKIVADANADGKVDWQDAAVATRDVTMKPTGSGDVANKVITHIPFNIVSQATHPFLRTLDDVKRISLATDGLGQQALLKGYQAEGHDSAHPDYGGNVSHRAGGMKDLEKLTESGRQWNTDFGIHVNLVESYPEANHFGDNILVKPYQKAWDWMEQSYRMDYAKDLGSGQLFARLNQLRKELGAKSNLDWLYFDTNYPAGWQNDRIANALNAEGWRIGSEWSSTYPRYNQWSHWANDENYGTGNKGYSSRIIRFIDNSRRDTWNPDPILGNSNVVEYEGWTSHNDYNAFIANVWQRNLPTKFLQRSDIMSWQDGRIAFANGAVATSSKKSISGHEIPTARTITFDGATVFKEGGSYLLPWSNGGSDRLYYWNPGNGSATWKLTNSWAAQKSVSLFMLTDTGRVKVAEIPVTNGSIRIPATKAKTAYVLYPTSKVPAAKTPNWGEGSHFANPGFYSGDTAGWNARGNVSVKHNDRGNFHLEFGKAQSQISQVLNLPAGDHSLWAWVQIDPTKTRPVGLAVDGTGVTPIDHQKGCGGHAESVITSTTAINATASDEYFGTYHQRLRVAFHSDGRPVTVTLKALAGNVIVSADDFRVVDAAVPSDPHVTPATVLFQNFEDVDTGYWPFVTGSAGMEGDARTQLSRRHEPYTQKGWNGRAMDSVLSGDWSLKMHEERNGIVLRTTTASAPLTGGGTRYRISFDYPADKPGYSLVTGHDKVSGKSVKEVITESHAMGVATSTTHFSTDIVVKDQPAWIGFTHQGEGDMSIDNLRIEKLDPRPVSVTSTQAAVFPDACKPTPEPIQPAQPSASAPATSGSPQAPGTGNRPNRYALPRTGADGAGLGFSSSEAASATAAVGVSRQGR", "assay": "steady-state kinetics, pNP release at […] nm", "type": "biochemical", "conditions": "50 mM sodium phosphate pH 7.5, 5 mM MgCl2, 25°C"}, "EngSP": {"target": "EngSP (Streptococcus pneumoniae, UniProt Q2MGH6)", "assay": "steady-state kinetics, pNP release at […] nm", "type": "biochemical", "conditions": "50 mM sodium phosphate pH 7.5, 5 mM MgCl2, 25°C"}, "EngAL": {"test_system": "EngAL", "assay": "steady-state kinetics, pNP release at […] nm", "type": "biochemical, Alcaligenes sp.", "conditions": "50 mM sodium phosphate pH 7.5, 5 mM MgCl2, 25°C"}, "purified protein": {"substrate": "CC(=O)N[C@H]1[C@H](O[C@H]2[C@@H](O)[C@@H](CO)O[C@H](Oc3ccc([N+](=O)[O-])cc3)[C@@H]2NC(C)=O)O[C@H](CO)[C@@H](O)[C@@H]1O", "assay": "purified protein", "conditions": "50 mM sodium phosphate pH 7.5, 5 mM MgCl2, 25°C"}}}
{"molecule": "CC(=O)N[C@H]1[C@@H](Oc2ccc([N+](=O)[O-])cc2)O[C@H](CO)[C@H](O)[C@@H]1O[C@@H]1O[C@H](CO)[C@H](O)[C@H](O)[C@H]1O", "note": "[Galβ1,3GalNAcα1pNP]", "values": [{"measurement": "Km", "setting": "EngEF", "result": 47.9, "unit": "µM"}, {"measurement": "Km", "setting": "EngCP", "result": 70.9, "unit": "µM"}, {"measurement": "Km", "setting": "EngPA", "result": 3.78, "unit": "µM"}, {"measurement": "Km", "setting": "EngSP", "result": 40.4, "unit": "µM"}, {"measurement": "Km", "setting": "EngAL", "result": 33.9, "unit": "µM"}]}
{"molecule": "B1", "values": [{"measurement": "Km", "setting": "purified protein", "result": 20.03, "unit": "µM"}, {"measurement": "kcat", "setting": "purified protein", "result": 9.43, "unit": "s⁻¹"}]}
